Measurements taken from patent US20240381872A1, “SUBSTITUTED 2,3-DIHYDRO[1,3]THIAZOLO[4,5-B]PYRIDINES, SALTS THEREOF AND THEIR USE AS HERBICIDALLY ACTIVE SUBSTANCES” (BAYER AKTIENGESELLSCHAFT, priority 2021, published 2024).

Key:
Assay type in all cases: in vivo
[1] = test system: Echinochloa crus-galli (ECHCG); assay: Herbicidal pre-emergence action, section C (Table C3); settings: visual grading after ca. 3 weeks vs untreated controls
Outline: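 Visual damage rating at ca. 3 weeks relative to untreated controls, expressed as % effect (100% = plants died, 0% = like controls). Pre-emergence treatment: WP or EC formulations applied to the soil surface over sown seeds in sandy loam, 600 l water/ha, 0.5% additive.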

[2] = test system: Echinochloa crus-galli (ECHCG); assay: Herbicidal pre-emergence action, section A (Table A3); settings: visual grading after ca. 3 weeks vs untreated controls
Outline: (§1)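 Percent herbicidal effect relative to untreated plants (0% = as control, 100% = died off) scored visually about 3 weeks after treatment. Compounds formulated as WP or EC were sprayed at 600 L/ha with 0.5% additive onto covering soil of freshly sown sandy-loam pots, then kept under greenhouse conditions.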

[3] = test system: Digitaria sanguinalis (DIGSA); assay: Herbicidal post-emergence action, section B (Table B12); settings: visual rating about 3 weeks after treatment vs untreated controls
Outline: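 Percent effect, judged by eye against untreated controls (0% = like control, 100% = plants dead), was recorded about 3 weeks after a foliar spray. The spray, at 600 liters per hectare with 0.5% additive, was applied to one-leaf-stage plants grown in sandy loam.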

Oryza sativa (ORYZA) = assay: Post-emergence effects on crop plants, section F (Table F3); settings: for post-emergence activity against ORYZA in %: crop plant damage; for post-emergence activity against ORYZA in % / percent crop plant damage at 320 g/ha: application rate 320 g/ha; for percent crop plant damage at 80 g/ha / percent crop plant damage at 320 g/ha: Oryza sativa, 504 h, read-out: post-emergence activity against ORYZA in %; for percent crop plant damage at 80 g/ha: application rate 80 g/ha
Excerpt: Seeds of mono- and dicotyledonous weed plants and crop plants were sown, in plastic or organic planting pots, in sandy loam, covered with soil and grown in a greenhouse under controlled growth conditions. 2 to 3 weeks after sowing, the test plants were sprayed in the single-leaf stage. The compounds according to the invention, formulated in form of wettable powders (WP) or as emulsifiable concentrates (EC), were sprayed onto the green plant parts as aqueous suspension or emulsion, with the addition of 0.5% of an additive, at an application rate of 600 l of water/ha (converted). The test plants were placed in the greenhouse for ca. 3 weeks under optimum growth conditions, and then the effect of the preparations was assessed visually in comparison with untreated controls (herbicidal effect in percent (%): 100% effect=plants have died off, 0% effect=as control plants). Tables F1 to F4 below show the effects of selected compounds of the general formula (I) according to Table 1 on various crop plants and an application rate corresponding to 320 g/ha or below obtained by the experimental procedure mentioned above.

[4] = test system: Abutilon theophrasti (ABUTH); assay: Herbicidal pre-emergence action, section A (Table A1); settings: visual grading after ca. 3 weeks vs untreated controls; for pre-emergence activity against ABUTH in % / pest or weed control at 1280 g/ha: application rate 1280 g/ha
Outline: as §1

[5] = test system: Amaranthus retroflexus (AMARE); assay: Herbicidal pre-emergence action, section A (Table A11); settings: for pest or weed control at 1280 g/ha / pest or weed control at 320 g/ha: Amaranthus retroflexus, 504 h, read-out: pre-emergence activity against AMARE in %
Outline: as §1

Lolium rigidum (LOLRI) = assay: Herbicidal pre-emergence action, section C (Table C5); settings: visual grading after ca. 3 weeks; for pest or weed control at 80 g/ha / pest or weed control at 320 g/ha: Lolium rigidum, pre-emergence, 504 h, read-out: pre-emergence activity against LOLRI in %; for pest or weed control at 80 g/ha: application rate 80 g/ha; for pre-emergence activity against LOLRI in % / pest or weed control at 320 g/ha: application rate 320 g/ha
Excerpt: Seeds of mono- and dicotyledonous weed plants and crop plants were sown, in plastic or organic planting pots, in sandy loam and covered with soil. The compounds according to the invention, formulated in the form of wettable powders (WP) or as emulsifiable concentrates (EC), were applied to the surface of the covering soil as aqueous suspension or emulsion, with the addition of 0.5% of an additive, at an application rate of 600 l of water/ha (converted). Following treatment, the pots were placed in a greenhouse and kept under optimum growth conditions for the test plants. The visual grading of the damage to the test plants was carried out after ca. 3 weeks in comparison to untreated controls (herbicidal effect in percent (%): 100% effect=plants have died off, 0% effect=as control plants).

Glycine max (GLXMA) = assay: Pre-emergence effects on crop plants, section D (Table D4); settings: visual grading after ca. 3 weeks
Outline: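 Formulated compound (wettable powder or emulsifiable concentrate) was applied pre-emergence to the soil surface at 320 g/ha or lower. Greenhouse-grown plants were rated visually for percent damage after ca. 3 weeks.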

[6] = Echinochloa crus-galli, pre-emergence, 504 h, application rate 80 g/ha, read-out: pre-emergence activity against ECHCG in %
[7] = Echinochloa crus-galli, pre-emergence, 504 h, application rate 320 g/ha, read-out: pre-emergence activity against ECHCG in %
[8] = Abutilon theophrasti, pre-emergence, 504 h, read-out: pre-emergence activity against ABUTH in %

| Compound | pest or weed control at 80 g/ha [1, 6] [%] | pest or weed control at 320 g/ha [2, 7] [%] | pest or weed control at 80 g/ha (Lolium rigidum (LOLRI)) [%] | percent crop plant damage at 80 g/ha (Oryza sativa (ORYZA)) [%] | pest or weed control at 1280 g/ha [4, 8] [%] | pre-emergence activity against GLXMA in % (crop plant damage) (Glycine max (GLXMA); application rate 320 g/ha) [%] | percent crop plant damage at 320 g/ha (Oryza sativa (ORYZA)) [%] | pre-emergence activity against GLXMA in % (crop plant damage) (Glycine max (GLXMA); application rate 80 g/ha) [%] | pest or weed control at 320 g/ha ([5]; application rate 320 g/ha) [%] | other results |
| --- | --- | --- | --- | --- | --- | --- | --- | --- | --- | --- |
| COC(=O)CCC(=O)N1CSc2cc(Cl)c(-c3ccccc3F)nc21 [Example I-003] | – | – | – | – | – | – | – | – | – | pre-emergence activity against ECHCG in % ([1]; application rate 320 g/ha): 80%; pre-emergence activity against ECHCG in % ([2]; application rate 1280 g/ha): 100%; post-emergence activity against DIGSA in % ([3]; application rate 1280 g/ha): 100%; post-emergence activity against ORYZA in % (Oryza sativa (ORYZA)): 0%; pre-emergence activity against ABUTH in % [4]: 90%; pre-emergence activity against AMARE in % ([5]; application rate 1280 g/ha): 90% |
| Cc1cc2c(nc1-c1ccccc1F)NCS2 [Example I-007, 5-(2-fluorophenyl)-6-methyl-2,3-dihydro[1,3]thiazolo[4,5-b]pyridine] | 100 | 100 | 100 | 10 | 90 | – | – | – | – | pest or weed control at 1280 g/ha ([5]; application rate 1280 g/ha): 90% |
| Fc1ccccc1-c1nc2c(cc1Br)SCN2 [Example I-001, 6-bromo-5-(2-fluorophenyl)-2,3-dihydro[1,3]thiazolo[4,5-b]pyridine] | 100 | – | 100 | – | – | 0 | 20 | – | – | – |
| Cc1cc2c(nc1-c1ccccc1F)N(S(=O)(=O)Cc1ccc(F)cc1)CS2 [Example I-122] | – | – | – | – | – | – | – | 10 | – | pre-emergence activity against ECHCG in % ([1]; application rate 320 g/ha): 100%; pre-emergence activity against ECHCG in % ([2]; application rate 320 g/ha): 100%; post-emergence activity against DIGSA in % ([3]; application rate 1280 g/ha): 90%; pre-emergence activity against LOLRI in % (Lolium rigidum (LOLRI)): 100%; pre-emergence activity against ABUTH in % [4]: 90%; pre-emergence activity against AMARE in % ([5]; application rate 320 g/ha): 90% |
| CCS(=O)(=O)N1CSc2cc(C)c(-c3ccccc3F)nc21 [Example I-060, 3-(ethylsulfonyl)-5-(2-fluorophenyl)-6-methyl-2,3-dihydro[1,3]thiazolo[4,5-b]pyridine] | 100 | – | 100 | 0 | – | – | – | 0 | 90 | pest or weed control at 1280 g/ha ([2]; Echinochloa crus-galli, pre-emergence, 504 h, application rate 1280 g/ha, read-out: pre-emergence activity against ECHCG in %): 100%; pest or weed control at 320 g/ha ([3]; Digitaria sanguinalis, post-emergence, 504 h, application rate 320 g/ha, read-out: post-emergence activity against DIGSA in %): 90%; pest or weed control at 320 g/ha ([4]; Abutilon theophrasti, pre-emergence, 504 h, application rate 320 g/ha, read-out: pre-emergence activity against ABUTH in %): 90% |
| Cc1cc2c(nc1-c1ccccc1Cl)NCS2 [Example I-049, 5-(2-chlorophenyl)-6-methyl-2,3-dihydro[1,3]thiazolo[4,5-b]pyridine] | 100 | – | 100 | 20 | – | 0 | – | – | – | – |
| CC(C)C(=O)N1C[S+]([O-])c2cc(Br)c(-c3ccccc3)nc21 (stereo not drawn) [Example I-067] | 90 | – | – | – | – | – | 0 | 20 | – | pest or weed control at 320 g/ha (Lolium rigidum (LOLRI)): 80% |
| Cc1cc2c(nc1-c1cccc(F)c1F)NCS2 [Example I-029, 5-(2,3-difluorophenyl)-6-methyl-2,3-dihydro[1,3]thiazolo[4,5-b]pyridine] | 100 | 100 | – | 0 | 90 | – | – | 10 | 90 | pest or weed control at 320 g/ha (Lolium rigidum (LOLRI)): 100% |
| BN1CSc2cc(Br)c(-c3ccccc3C)nc21 [Example I-011] | – | – | – | – | – | 0 | – | – | – | pre-emergence activity against ECHCG in % ([1]; application rate 320 g/ha): 100%; pre-emergence activity against ECHCG in % ([2]; application rate 320 g/ha): 100%; pre-emergence activity against LOLRI in % (Lolium rigidum (LOLRI)): 100%; post-emergence activity against ORYZA in % (Oryza sativa (ORYZA)): 0%; pre-emergence activity against AMARE in % ([5]; application rate 1280 g/ha): 90% |
| CCS(=O)(=O)N1C[S+]([O-])c2cc(C)c(-c3ccccc3C)nc21 (stereo not drawn) [Example I-074] | 100 | 100 | – | 0 | 90 | 0 | – | – | 90 | pest or weed control at 1280 g/ha ([3]; Digitaria sanguinalis, post-emergence, 504 h, application rate 1280 g/ha, read-out: post-emergence activity against DIGSA in %): 90% |
| CCc1ccccc1-c1nc2c(cc1C)[S+]([O-])CN2 (stereo not drawn) [Example I-047] | – | 100 | – | – | – | 20 | 0 | – | – | pest or weed control at 320 g/ha (Lolium rigidum (LOLRI)): 100%; pest or weed control at 1280 g/ha ([5]; application rate 1280 g/ha): 90% |
| Clc1ccccc1-c1nc2c(cc1Br)SCN2 [Example I-041, 6-bromo-5-(2-chlorophenyl)-2,3-dihydro[1,3]thiazolo[4,5-b]pyridine] | – | 100 | – | – | 90 | – | 0 | – | 90 | pest or weed control at 320 g/ha [1, 7]: 100% |
| Cc1cc2c(nc1-c1ccccc1F)N(C(=O)C1(C)CC(Cl)=NO1)CS2 (stereo not drawn) [Example I-083] | – | – | – | – | – | – | – | – | – | pre-emergence activity against ECHCG in % ([1]; application rate 80 g/ha): 100%; pre-emergence activity against ECHCG in % ([2]; application rate 320 g/ha): 100%; post-emergence activity against DIGSA in % ([3]; application rate 1280 g/ha): 90%; pre-emergence activity against LOLRI in % (Lolium rigidum (LOLRI)): 80%; post-emergence activity against ORYZA in % (Oryza sativa (ORYZA)): 10%; pre-emergence activity against AMARE in % ([5]; application rate 320 g/ha): 100% |
